Here are results for 11 compounds from patent US20120208827A1, “BENZIMIDAZOLES AS FATTY ACID SYNTHASE INHIBITORS” (GlaxoSmithKline LLC, priority 2009, published 2012).

FAS, sequence (P49327 whole entry): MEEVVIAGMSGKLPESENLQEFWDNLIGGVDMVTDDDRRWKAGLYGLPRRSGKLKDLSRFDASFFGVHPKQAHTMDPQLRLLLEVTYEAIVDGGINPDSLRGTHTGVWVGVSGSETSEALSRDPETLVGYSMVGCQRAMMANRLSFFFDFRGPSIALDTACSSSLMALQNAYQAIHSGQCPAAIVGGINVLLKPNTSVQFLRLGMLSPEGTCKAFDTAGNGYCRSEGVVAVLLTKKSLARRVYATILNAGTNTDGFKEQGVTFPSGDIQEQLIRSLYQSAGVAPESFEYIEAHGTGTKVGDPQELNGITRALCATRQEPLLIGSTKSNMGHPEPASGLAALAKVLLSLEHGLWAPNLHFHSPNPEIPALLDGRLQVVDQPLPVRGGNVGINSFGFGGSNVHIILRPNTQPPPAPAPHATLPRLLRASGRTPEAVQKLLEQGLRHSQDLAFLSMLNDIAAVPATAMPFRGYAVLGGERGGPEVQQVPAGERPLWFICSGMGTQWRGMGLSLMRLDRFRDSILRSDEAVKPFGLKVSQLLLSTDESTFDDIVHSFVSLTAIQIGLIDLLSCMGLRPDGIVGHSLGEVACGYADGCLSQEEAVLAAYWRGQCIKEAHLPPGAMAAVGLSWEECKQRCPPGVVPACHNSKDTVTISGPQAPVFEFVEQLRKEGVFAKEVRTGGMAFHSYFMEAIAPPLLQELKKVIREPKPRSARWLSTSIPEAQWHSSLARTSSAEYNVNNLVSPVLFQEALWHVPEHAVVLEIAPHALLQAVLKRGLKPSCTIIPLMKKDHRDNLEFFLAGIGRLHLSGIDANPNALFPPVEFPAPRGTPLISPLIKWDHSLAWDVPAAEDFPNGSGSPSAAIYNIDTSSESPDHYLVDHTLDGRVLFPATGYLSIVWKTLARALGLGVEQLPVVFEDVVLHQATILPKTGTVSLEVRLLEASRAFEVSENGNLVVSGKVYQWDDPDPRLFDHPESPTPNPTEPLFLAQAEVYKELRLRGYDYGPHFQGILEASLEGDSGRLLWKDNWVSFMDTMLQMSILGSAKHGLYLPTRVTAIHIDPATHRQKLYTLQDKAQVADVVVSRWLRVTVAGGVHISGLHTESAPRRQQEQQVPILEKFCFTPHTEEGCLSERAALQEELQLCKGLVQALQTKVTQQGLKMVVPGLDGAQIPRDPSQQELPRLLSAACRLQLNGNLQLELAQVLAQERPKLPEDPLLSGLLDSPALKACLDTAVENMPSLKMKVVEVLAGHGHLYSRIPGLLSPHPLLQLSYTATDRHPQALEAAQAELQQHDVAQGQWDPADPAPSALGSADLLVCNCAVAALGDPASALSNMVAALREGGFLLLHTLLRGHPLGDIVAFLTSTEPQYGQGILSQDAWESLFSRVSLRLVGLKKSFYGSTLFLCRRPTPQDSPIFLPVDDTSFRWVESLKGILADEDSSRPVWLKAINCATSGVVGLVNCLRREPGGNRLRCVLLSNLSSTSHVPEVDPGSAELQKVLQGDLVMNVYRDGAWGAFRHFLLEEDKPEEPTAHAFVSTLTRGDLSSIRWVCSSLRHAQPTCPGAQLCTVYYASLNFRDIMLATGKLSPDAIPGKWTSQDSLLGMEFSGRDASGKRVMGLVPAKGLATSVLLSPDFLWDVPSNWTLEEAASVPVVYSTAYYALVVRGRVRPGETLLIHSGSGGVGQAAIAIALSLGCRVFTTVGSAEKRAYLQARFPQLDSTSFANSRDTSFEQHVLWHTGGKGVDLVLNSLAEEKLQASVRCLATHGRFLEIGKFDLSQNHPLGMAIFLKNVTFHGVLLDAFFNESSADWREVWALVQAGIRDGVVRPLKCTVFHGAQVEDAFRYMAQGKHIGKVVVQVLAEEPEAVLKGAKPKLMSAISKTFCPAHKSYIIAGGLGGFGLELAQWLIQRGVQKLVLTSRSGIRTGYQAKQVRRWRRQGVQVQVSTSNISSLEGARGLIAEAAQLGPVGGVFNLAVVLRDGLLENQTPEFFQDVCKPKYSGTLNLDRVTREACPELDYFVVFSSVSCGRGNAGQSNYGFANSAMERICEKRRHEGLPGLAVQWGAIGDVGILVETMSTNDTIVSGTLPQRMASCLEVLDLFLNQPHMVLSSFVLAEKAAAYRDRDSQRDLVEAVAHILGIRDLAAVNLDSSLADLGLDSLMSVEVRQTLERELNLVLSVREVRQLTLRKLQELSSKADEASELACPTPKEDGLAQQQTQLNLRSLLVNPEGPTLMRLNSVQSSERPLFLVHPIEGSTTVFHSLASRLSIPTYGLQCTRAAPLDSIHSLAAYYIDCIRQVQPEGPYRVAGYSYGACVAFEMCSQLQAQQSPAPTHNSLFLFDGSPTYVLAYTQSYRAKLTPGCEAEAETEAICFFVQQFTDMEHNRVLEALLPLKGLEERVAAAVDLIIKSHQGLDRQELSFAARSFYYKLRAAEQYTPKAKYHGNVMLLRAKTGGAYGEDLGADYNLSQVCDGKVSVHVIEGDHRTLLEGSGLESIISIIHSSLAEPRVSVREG

The target of the test is FAS (Homo sapiens, UniProt P49327). Description: FAS assay (Assay #1 residual NADPH detection or Assay #2 CoA detection with thio-reactive coumarin dye). It is filed as biochemical. The following applies: tested generally according to the assays described (Assay #1 or #2); in at least one experimental run; read-out: pIC50 value (inhibition of FAS) (converted). As for the experimental part:
FAS activity was measured through one of the two following assays.
Inhibition of FAS activity can be measured based on the detection of residual NADPH substrate after the FAS assay is quenched. This assay is run as a 10 μL endpoint assay in 384-well format, where the reaction contains 20 μM malonyl-CoA, 2 μM acetyl-CoA, 30 μM NADPH and 40 nM FAS in 50 mM sodium phosphate, pH 7.0. The assay is run by sequentially dispensing 5 μl of a malonyl-CoA solution, then enzyme solution (containing the acetyl-CoA, and NADPH) into a black, low volume assay plate (Greiner 784076) pre-dispensed with […] compound solutions in DMSO. The reaction is incubated at ambient temperature for 60 minutes, then quenched with 5 μL of a developing solution composed of 90 μM resazurin, 0.3 IU/ml diaphorase in 50 mM sodium phosphate, pH 7.0. The developed reaction is read on a Molecular Devices Analyst or Acquest (or equivalent) plate reader using a 530 nm excitation wavelength filter, a 580 nm emission filter, and 561 nm dichroic filter. The test compounds are prepared in neat DMSO at a concentration of 10 mM. For inhibition curves, compounds are diluted using a three-fold serial dilution and tested at 11 concentrations (e.g. 25 μM-0.42 nM). Curves are analysed using ActivityBase and XLfit, and results are expressed as pIC50 values.
Inhibition of FAS can also be quantified based on the detection of the CoA products with a thio-reactive coumarin dye. This assay is run as a 10 μL endpoint assay in 384-well format, where the reaction contains 20 μM malonyl-CoA, 20 μM acetyl-CoA, 40 μM NADPH and 2 nM FAS in 50 mM sodium phosphate, pH 7.0, and 0.04% Tween-20. The assay is run by adding 5 μL enzyme solution to a black, low volume assay plate (Greiner 784076) pre-dispensed with 100 nl compound solutions in DMSO. After 30 minutes, […] substrate is added, and the reaction incubated at ambient temperature for an additional 60 minutes. The reaction is then quenched with 10 μL of 6M guanidine-HCl containing 50 μM CPM (7-diethylamino-3-(4′-maleimidylphenyl)-4-methylcoumarin (CPM; thio-reactive dye), and incubated for 30 minutes. The plate is read on an Envision (PerkinElmer) or equivalent plate reader using a 380 nm excitation wavelength filter, and a 486 nm emission filter. Data fitting and compound preparations are done as described above.
Consider `O=C(C1CC1)N1CC[C@@H](Cn2c(-c3ccc(-c4ccc5cc[nH]c5c4)cc3)nc3ccc(C(F)(F)F)cc32)C1` [Example 88, 1-{[(3S)-1-(Cyclopropylcarbonyl)-3-pyrrolidinyl]methyl}-2-[4-(1H-indol-6-yl)phenyl]-6-(trifluoromethyl)-1H-benzimidazole], for which the IC50 is 43.7 nM.

Take `O=C(C1CC1)N1CC[C@@H](Cn2c(-c3ccc(-c4ccccc4)cc3)nc3c(Br)cccc32)C1` [Example 33, 2-(4-Biphenylyl)-4-bromo-1-{[(3S)-1-(cyclopropylcarbonyl)-3-pyrrolidinyl]methyl}-1H-benzimidazole]: the IC50 is 135 nM. With `CN1CCN(C(=O)c2ccc3nc(-c4ccc(-c5ccc6cc[nH]c6c5)cc4)n(C[C@@H]4CCN(C(=O)C5CC5)C4)c3c2)CC1` [Example 106, 1-{[(3S)-1-(Cyclopropylcarbonyl)-3-pyrrolidinyl]methyl}-2-[4-(1H-indol-6-yl)phenyl]-6-[(4-methyl-1-piperazinyl)carbonyl]-1H-benzimidazole], the IC50 is 55 nM. Next, `CN1CCN(C(=O)c2ccc3nc(-c4ccc(-c5ccc6[nH]ccc6c5)cc4)n(C[C@@H]4CCN(C(=O)C5CC5)C4)c3c2)CC1` [Example 107, 1-{[(3S)-1-(Cyclopropylcarbonyl)-3-pyrrolidinyl]methyl}-2-[4-(1H-indol-5-yl)phenyl]-6-[(4-methyl-1-piperazinyl)carbonyl]-1H-benzimidazole]: 10 nM; `O=C(C1CC1)N1CC[C@@H](Cn2c(-c3ccc(-c4ccc5cc[nH]c5c4)cc3)nc3c(C(F)(F)F)cccc32)C1` [Example 24, 1-{[(3S)-1-(Cyclopropylcarbonyl)-3-pyrrolidinyl]methyl}-2-[4-(1H-indol-6-yl)phenyl]-4-(trifluoromethyl)-1H-benzimidazole]: 49 nM; `O=C(C1CC1)N1CC[C@@H](Cn2c(-c3ccc(-c4ccc5[nH]ccc5c4)cc3)nc3cc(C(F)(F)F)ccc32)C1` [Example 62, 1-{[(3S)-1-(Cyclopropylcarbonyl)-3-pyrrolidinyl]methyl}-2-[4-(1H-indol-5-yl)phenyl]-5-(trifluoromethyl)-1H-benzimidazole]: 30.9 nM. On to `O=C(C1CC1)N1CC[C@@H](Cn2c(-c3ccc(-c4ccc(F)cc4)cc3)nc3cccc(C(F)(F)F)c32)C1` [Example 117, 1-{[(3S)-1-(Cyclopropylcarbonyl)-3-pyrrolidinyl]methyl}-2-(4′-fluoro-4-biphenylyl)-7-(trifluoromethyl)-1H-benzimidazole], for which the IC50 was 1450 nM. Next, `Cc1ccc2c(c1)nc(-c1ccc(-c3ccc4[nH]ncc4c3)cc1)n2C[C@@H]1CCN(C(=O)C2CC2)C1` [Example 49, 5-[4-(1-{[(3S)-1-(Cyclopropylcarbonyl)-3-pyrrolidinyl]methyl}-5-methyl-1H-benzimidazol-2-yl)phenyl]-1H-indazole]: 26.9 nM; `COc1ccc2nc(-c3ccc(-c4ccc5cc[nH]c5c4)cc3)n(C[C@@H]3CCN(C(=O)C4CC4)C3)c2c1` [Example 66, 1-{[(3S)-1-(Cyclopropylcarbonyl)-3-pyrrolidinyl]methyl}-2-[4-(1H-indol-6-yl)phenyl]-6-(methyloxy)-1H-benzimidazole]: 21.9 nM. Next, `Cc1ccc2nc(-c3ccc(-c4ccc5occc5c4)cc3)n(C[C@@H]3CCN(C(=O)C4CC4)C3)c2c1` [Example 83, 2-[4-(1-Benzofuran-5-yl)phenyl]-1-{[(3S)-1-(cyclopropylcarbonyl)-3-pyrrolidinyl]methyl}-6-(methyl)-1H-benzimidazole]: 50.1 nM; `O=C(C1CC1)N1CC[C@@H](Cn2c(-c3ccc(-c4ccc5ncsc5c4)cc3)nc3ccccc32)C1` [Example 4, 6-[4-(1-{[(3S)-1-(Cyclopropylcarbonyl)-3-pyrrolidinyl]methyl}-1H-benzimidazol-2-yl)phenyl]-1,3-benzothiazole]: 55 nM.
